# Source: patent EP4588921A1, “FREE BASE CRYSTAL FORM OF POLYCYCLIC COMPOUND OF NITROGEN-CONTAINING HETEROCYCLE, AND PREPARATION METHOD THEREFOR” (Jiangsu Hansoh Pharmaceutical Group Co., Ltd., priority 2022, dated 2024)
# Where two headings read alike, the source gives them in different places.
# How the values were obtained:
# [1] = PK studies in animals of the free base crystal forms; assay type: in vivo; conditions: Sprague-Dawley (SD), rat, 30 mg/kg, 30MPK, 0.5%HPMC suspension, SD rats, plasma
# Description: The pharmacokinetic of the free base crystal form after a single intravenous administration was studied, and the bioavailability of the free base crystal form I and the free base crystal form II after oral administration were calculated.
# The free base crystal form I was suspended with 0.5% CMCC-Na aqueous solution, and the free base crystal form […] aqueous solution. After uniformity, the suspensions were administered intragastrically to rats in triplicate at a dosage of 5 mg/kg (30 mg/kg for suspension) for the free base crystal form I and a dosage of 30 mg/kg (suspension) for the free base crystal form II. The free base crystal form I was dissolved with 20% HP-β-CD aqueous solution to obtain a clear solution, and the clear solution was filtered through a filter membrane. The filtered solution was administered via injection to rats in triplicate.
# [2] = Hygroscopicity experiment; assay type: physicochemical; conditions: at 80%RH
# Description: The hygroscopicity of the crystal form I and the crystal form II of compound 9 were investigated under different relative humidity to provide a basis for the storage of the compounds.
# The crystal form I and the crystal form II of compound 9 were placed in saturated water vapor at different relative humidities to allow the compound to reach a dynamic equilibrium with the water vapor, and the percentage of weight gain after moisture absorption of the compound after equilibrium was calculated.
# [3] = Solid stability experiment (related substances by HPLC); assay type: physicochemical
# Description: The compound physical and chemical stability at high temperature of 60°C, high humidity of 92.5% RH and both high temperature of 50°C and high humidity of 75% RH of the free base crystal form I and the free base crystal form II were investigated to provide a basis for the storage of the compounds.
# About 2 mg of the free base crystal form I and the free base crystal form II were taken respectively, and changes of related substances in the crystal forms at high temperature of 60°C, high humidity of 92.5% RH, and both high temperature of 50°C and high humidity of 75%RH for 7 days and 14 days were investigated. The changes of related substances were calculated by HPLC and the chromatographic peak area normalization method.
# [4] = Solubility experiments in different media (thermodynamic solubility); assay type: physicochemical; conditions: thermodynamic from solid
# Text: The solubility of the free base crystal form I and the free base crystal form II in media such as pH 1.0-8.0 USP buffer, artificial simulated gastric fluid (FaSSGF), fasted-state artificial simulated intestinal fluid (FaSSIF), fed-state artificial simulated intestinal fluid (FeSSIF) and pure water was compared to provide a basis for the evaluation of drugability.
# [5] = Room temperature, 92.5%RH, 7 days
# [6] = Room temperature, 92.5%RH, 14 days
smiles,measurement,setting,value
"CC(C)(O)c1nc(N2C[C@H]3CN(C(=O)c4c(F)cccc4-c4ncccn4)C[C@H]3C2)ncc1F [free base crystal form II, ((3aR,6aS)-5-(5-fluoro-4-(2-hydroxyprop-2-yl)pyrimidin-2-yl)hexahydropyrrolo [3,4-c]pyrrol-2(1H)-yl)(2-fluoro-6-(pyrimidin-2-yl)phenyl)methanone]",Tmax,"[1]; PO, read-out: tmax",2 h
same,AUC(0-inf),[1]; po,13600 ng·h/mL
same,AUC(0-t),[1]; po,11800 ng·h/mL
same,Cmax,[1]; po,2520 ng/mL
same,bioavailability,[1]; po,39.6%
same,half-life,[1]; po,2.4 h
same,MRT inf,"[1]; po, PO, read-out: MRT 0-∞",4.3 h
same,weight gain after moisture absorption,[2],about 0.2053%
same,% Increase in total impurity,"[3]; 50°C, 75%RH, 7 days",<0.10%
same,% Maximum increase in single impurity,"[3]; 50°C, 75%RH, 7 days",<0.10%
same,% Increase in total impurity,"[3]; 50°C, 75%RH, 14 days",<0.10%
same,% Maximum increase in single impurity,"[3]; 50°C, 75%RH, 14 days",<0.10%
same,% Increase in total impurity,"[3]; 60°C, 7 days",<0.10%
same,% Maximum increase in single impurity,"[3]; 60°C, 7 days",<0.10%
same,% Increase in total impurity,"[3]; 60°C, 14 days",<0.10%
same,% Maximum increase in single impurity,"[3]; 60°C, 14 days",<0.10%
same,% Increase in total impurity,[3]; [5],<0.10%
same,% Maximum increase in single impurity,[3]; [5],<0.10%
same,% Increase in total impurity,[3]; [6],<0.11%
same,% Maximum increase in single impurity,[3]; [6],<0.10%
same,solubility at 2 h,"[4]; FaSSCoF, 37 °C, fassgf or other biorelevant, FaSSCoF, read-out: Solubility of free base crystal form II",51 µg/mL
same,solubility at 2 h,"[4]; FaSSGF (artificial simulated gastric fluid), 37 °C, fassgf or other biorelevant, FaSSGF, read-out: Solubility of free base crystal form II",131 µg/mL
same,solubility at 2 h,"[4]; FaSSIF, 37 °C, fassif, FaSSIF, read-out: Solubility of free base crystal form II",60 µg/mL
same,solubility at 2 h,"[4]; FeSSCoF, 37 °C, fassgf or other biorelevant, FeSSCoF, read-out: Solubility of free base crystal form II",63 µg/mL
same,solubility at 2 h,"[4]; FeSSIF, 37 °C, fessif, FeSSIF, read-out: Solubility of free base crystal form II",100 µg/mL
same,solubility at 2 h,"[4]; USP buffer pH 1.0, 37 °C, pH 1, simulated gastric fluid, pH 1.0, read-out: Solubility of free base crystal form II",599 µg/mL
same,solubility at 2 h,"[4]; USP buffer pH 2.0, 37 °C, pH 2, simulated gastric fluid, pH 2.0, read-out: Solubility of free base crystal form II",89 µg/mL
same,solubility at 2 h,"[4]; USP buffer pH 3.0, 37 °C, pH 3, aqueous buffer, pH 3.0, read-out: Solubility of free base crystal form II",55 µg/mL
same,solubility at 2 h,"[4]; USP buffer pH 4.5, 37 °C, pH 4.5, aqueous buffer, pH 4.5, read-out: Solubility of free base crystal form II",53 µg/mL
same,solubility at 2 h,"[4]; USP buffer pH 6.8, 37 °C, pH 6.8, aqueous buffer, pH 6.8, read-out: Solubility of free base crystal form II",49 µg/mL
same,solubility at 2 h,"[4]; USP buffer, 37 °C, pH 4, aqueous buffer, pH 4.0, read-out: Solubility of free base crystal form II",51 µg/mL
same,solubility at 2 h,"[4]; USP buffer, 37 °C, pH 5, aqueous buffer, pH 5.0, read-out: Solubility of free base crystal form II",50 µg/mL
same,solubility at 2 h,"[4]; USP buffer, 37 °C, pH 6, aqueous buffer, pH 6.0, read-out: Solubility of free base crystal form II",50 µg/mL
same,solubility at 2 h,"[4]; USP buffer, 37 °C, pH 7, aqueous buffer, pH 7.0, read-out: Solubility of free base crystal form II",47 µg/mL
same,solubility at 2 h,"[4]; USP buffer, 37 °C, pH 8, aqueous buffer, pH 8.0, read-out: Solubility of free base crystal form II",47 µg/mL
same,solubility at 2 h,"[4]; water, 37 °C, water, H2O, read-out: Solubility of free base crystal form II",55 µg/mL
